Measured values: patent US20240369576A1, “ASSAYS FOR ALPHA-DYSTROGLYCAN GLYCOSYLATION AND METHODS FOR USING SAME” (ML Bio Solutions Inc., priority 2023, published 2024)
Entries after “also recorded” stand apart in the source; their conditions may differ.

Columns and labels:
patients with LGMD2I/R9 [1] = assay: Open label Phase 2 study of ribitol in LGMD2I/R9: safety and tolerability; type: in vivo, human
Description: Objectives: The Phase 2 study is intended to explore the safety and tolerability of ribitol. Additionally, the feasibility and usefulness of clinical efficacy and pharmacodynamic (PD) assessments in patients with LGMD2I receiving ascending doses of ribitol will be investigated.
Methods: This study is an open label dose escalation study of patients with LGMD2I/R9. Part 1 of the study involved three dose cohorts (6 g QD, 6 g BID and 12 g BID) treated for 3 months. During Parts 2 (target maximal dose) and 3 (ongoing OLE), all patients received 12 g BID, dose adjusted for lower weight.
FIG. 17 schematically illustrates the details of the clinical study. Briefly, the study includes 3 parts: a 90 day dose escalation phase (Part 1), a 90 day maximum dose phase (Part 2), and a 24 month long term extension phase (Part 3). In Part 1, 14 total patients are studied across three cohorts (6 g QD, 6 g BID, and 12 g BID ribitol). After Part 1, all patients transition to the highest dose, 12 g BID ribitol. Dosing adjustments in Part 2 were as follows: for patients with weight >70 kg: 12 g BID; for patients with weight between 50-70 kg: 9 g BID; and for patients with weight between 30-50 kg: 6 g BID. Dosing adjustments in Part 3 were as follows: for patients with weight >50 kg: 12 g BID; and for patients with weight between 30-50 kg: 9 g BID.
Key inclusion criteria for the study include age between 12-55 years at enrollment; genetically confirmed LGMD2I/R9 diagnosis; body weight of at least 30 kg; and ability to complete a […] walk test in <12 seconds unaided for moderate disease, or unable to complete the 10MWT for severe disease.

patients with LGMD2I/R9 [2] = assay: Open label Phase 2 study of ribitol in LGMD2I/R9: ambulatory and clinical measures (NSAD, 10MWT, 100MTT); type: in vivo, human; details: following 15 months of ribitol treatment, vs natural history decline
Description: (§1) Methods: This study is an open label dose escalation study of patients with LGMD2I/R9. Part 1 of the study involved three dose cohorts (6 g QD, 6 g BID and 12 g BID) treated for 3 months. During Parts 2 (target maximal dose) and 3 (ongoing OLE), all patients received 12 g BID, dose adjusted for lower weight. FIG. 17 schematically illustrates the details of the clinical study. Briefly, the study includes 3 parts: a 90 day dose escalation phase (Part 1), a 90 day maximum dose phase (Part 2), and a 24 month long term extension phase (Part 3). In Part 1, 14 total patients are studied across three cohorts (6 g QD, 6 g BID, and 12 g BID ribitol). After Part 1, all patients transition to the highest dose, 12 g BID ribitol. Dosing adjustments in Part 2 were as follows: for patients with weight >70 kg: 12 g BID; for patients with weight between 50-70 kg: 9 g BID; and for patients with weight between 30-50 kg: 6 g BID. Dosing adjustments in Part 3 were as follows: for patients with weight >50 kg: 12 g BID; and for patients with weight between 30-50 kg: 9 g BID. Key inclusion criteria for the study include age between 12-55 years at enrollment; genetically confirmed LGMD2I/R9 diagnosis; body weight of at least 30 kg; and ability to complete a 10 minute walk test in <12 seconds unaided for moderate disease, or unable to complete the 10MWT for severe disease. Key endpoints for the study include NSAD; 10 or 100 meter walk test; FVC; PUL2.0; glycosylated αDG levels; and serum creatine kinase (CK).

[3] = test system: alpha-DG glycosylation in LGMD2I mouse models; details: cited from earlier work
[4] = test system: serum creatine kinase (CK); assay: Open label Phase 2 study of ribitol in LGMD2I/R9: serum creatine kinase; type: in vivo, human
Description: as §1, with “Key” for “Key inclusion criteria for the study include age between 12-55 years at enrollment; genetically confirmed LGMD2I/R9 diagnosis; body weight of at least 30 kg; and ability to complete a 10 minute walk test in <12 seconds unaided for moderate disease, or unable to complete the 10MWT for severe disease. Key”

[5] = test system: αDG glycosylation in P448L mutant FKRP mice; assay: Multiplexed Western blot of total and glycosylated αDG in muscle of P448L mutant FKRP mice treated with 5% Ribitol; type: in vivo, mouse; details: 5% Ribitol treated P448L mice vs untreated P448L mice, heart muscle and TA lysates
Description: Murine Mouse Tissue: Murine muscle tissue samples from healthy, [MUT], and […] mutant mice were stored at -80° C. until analysis. Tissue Processing: Tissue samples were processed using a TissueLyzer IITM (Qiagen®). Approximately 250 milligrams (mg) of tissue was placed in a 2 mL microtube with a steel bead and 1 mL of Radioimmunoprecipitation assay buffer (RIPA) buffer supplemented with protease and phosphatase inhibitors. The microtubes were subjected to three cycles of disruption (2 minutes at 25 Hertz (Hz)) in the TissueLyzer IITM. Lysates were clarified by centrifugation and the supernatant was transferred to fresh tubes and protein concentration in lysate was determined using a BCA assay (Pierce®). […] The membrane was visualized on an Odyssey CLxTM imager (LiCorTM) and intensities of the 700 and 800 nm channels were recorded. […] Signal intensities were normalized to total protein and the ratio of 700 nm normalized signal/800 nm normalized signal was determined. Linear fits were assessed where applicable using the linear regression function of PrismTM. Statistical significance was determined using an unpaired t-test using PrismTM (e.g., using the p-value for the parameters slope and intercept). StainFree gel image is quantitated using ImageLabTM software to analyze the image from the ChemiDocTM Imaging System. […] Linear fits were assessed were applicable using a linear regression function. […]

glycosylated αDG = assay: Open label Phase 2 study of ribitol in LGMD2I/R9: glycosylated αDG in tibialis anterior biopsies by Western blot; type: in vivo, human
Description: Tissue Lysis and sample preparation: Tissue samples were processed in lysis buffer, supplemented with protease inhibitors. Total protein in lysate was determined by BCA (Thermo Fisher) for RIPA and protein 660 kit (Thermo Fisher) for SDS-Urea and tested at 60 μg for CP Heterozygous samples and 40 μg for Homozygous samples. Differential protein loading is used for different patients to compensate for patient deficits in glycosylated αDG. […] Loading additional protein helps compensate for this deficiency and allows the assay to detect lower-level ranges. This is further stratified by patient genotype: more severe patients require greater protein loading. Western Blotting: For detection of target proteins αDG-Total and αDG-Glycan, membrane was probed simultaneously with primary antibodies AF6868 alpha Dystroglycan (R&D Systems) and IIH6C4 alpha Dystroglycan (Millipore), followed by fluorescent secondary antibodies IR800CW Mouse Anti-Sheep and IR680 Goat Anti-Mouse secondary antibodies (LiCor). The membrane was visualized in Odyssey CLx imager (LiCor) and intensities of the 700 (αDG-Glycan, red bands) and 800 (αDG-Total, green bands) nm channels were recorded. […] Here, amounts of glycosylated and total αDG are determined using standard curves, and an interpolated ratio is computed by dividing the amount of glycosylated αDG to the amount of total αDG. Data Analysis: Integration boxes were drawn using Image Studio software with specific dimensions over molecular weight range for standards, test articles and control samples. Data analysis was done in Excel (Microsoft). […] Healthy positive control (HPC) at 10 μg was deployed to monitor assay performance. […] FIG. 12 schematically illustrates a workflow for the Western Blot method. Briefly, biopsies are collected from a subject at a desired timepoint and homogenized. Gel electrophoresis is performed, followed by membrane transfer and blocking. Sample is incubated with the primary antibody followed by the secondary antibody. Detection and analysis are subsequently performed. […] A broader region of 70-260 kDa was used in prior iterations of the assay, including that described in Example 2 herein. […] Multiple sections of a single healthy donor TA biopsy sample are homogenized and the resulting lysate is pooled together and stored in single use aliquots at −80° C. These aliquots are used to generate a standard curve which is used in every assay. In addition, a quality control of 10 μg lysate is used to assess assay performance by measuring interpolatability to the standard curve. Methods: This study is an open label dose escalation study of patients with LGMD2I/R9. Part 1 of the study involved three dose cohorts (6 g QD, 6 g BID and 12 g BID) treated for 3 months. During Parts 2 (target maximal dose) and 3 (ongoing OLE), all patients received 12 g BID, dose adjusted for lower weight. FIG. 17 schematically illustrates the details of the clinical study. Briefly, the study includes 3 parts: a 90 day dose escalation phase (Part 1), a 90 day maximum dose phase (Part 2), and a 24 month long term extension phase (Part 3). In Part 1, 14 total patients are studied across three cohorts (6 g QD, 6 g BID, and 12 g BID ribitol). After Part 1, all patients transition to the highest dose, 12 g BID ribitol. Dosing adjustments in Part 2 were as follows: for patients with weight >70 kg: 12 g BID; for patients with weight between 50-70 kg: 9 g BID; and for patients with weight between 30-50 kg: 6 g BID.

[6] = maximum change over 3-15 months of treatment, FIG. 19

OC[C@@H](O)[C@@H](O)[C@@H](O)CO [ribitol, (2R,3S,4S)-Pentane-1,2,3,4,5-pentol]
adverse events leading to discontinuation or interruption in therapy (patients with LGMD2I/R9 [1]; 15 months of treatment): No adverse event led to a discontinuation or interruption in therapy
diarrhea, possibly or probably treatment-related (patients with LGMD2I/R9 [1]; 75% grade 1, 25% grade 2): 6 incidents
treatment-related serious adverse events, dose limiting toxicities or discontinuations (patients with LGMD2I/R9 [1]; across a range of ribitol dose levels): no observed treatment-related serious adverse events, dose limiting toxicities or discontinuations
nausea, possibly or probably treatment-related (patients with LGMD2I/R9 [1]; both grade 1): 2 incidents
vomiting, possibly or probably treatment-related (patients with LGMD2I/R9 [1]; both grade 1): 2 incidents
adverse events possibly or probably related to ribitol treatment (patients with LGMD2I/R9 [1]; during the course of the study): 12
adverse events recorded (patients with LGMD2I/R9 [1]; during the course of the study, 14 patients): 136
dehydration, possibly or probably treatment-related (patients with LGMD2I/R9 [1]; grade 1): 1 incident
dyspepsia, possibly or probably treatment-related (patients with LGMD2I/R9 [1]; grade 1): 1 incident
gastroenteritis, possibly or probably treatment-related (patients with LGMD2I/R9 [1]; grade 2): 1 incident
headaches, possibly or probably treatment-related (patients with LGMD2I/R9 [1]; grade 2): 1 incident
tolerability (patients with LGMD2I/R9 [1]; over 15 months of treatment): well-tolerated; also recorded: well tolerated
severe adverse events (patients with LGMD2I/R9 [1]; unrelated to the treatment): 3
10MWT velocity (patients with LGMD2I/R9 [2]): improvements
100MTT (patients with LGMD2I/R9 [2]): improvements
NSAD (patients with LGMD2I/R9 [2]): improvements
10MWT velocity (patients with LGMD2I/R9 [2]; listed as Ribitol): improvement
100MTT (patients with LGMD2I/R9 [2]; listed as Ribitol): improvement
NSAD (patients with LGMD2I/R9 [2]; listed as Ribitol): improvement
alpha-DG glycosylation [3]: increase
change in serum CK ([4]; after 3 months of treatment, FIG. 20): notable change
sustained reduction in serum creatine kinase (CK) ([4]; over 15 months of ribitol treatment): > 75%
αDG expression (total αDG signal, ~50-250 kDa) ([5]; FIG. 6B): increased
ratio of glycosylated αDG to total αDG ([5]; FIG. 6C): increased
change in glycosylated αDG vs baseline (glycosylated αDG; LGMD2I/R9 patients, oral ribitol 6 g QD to 12 g BID, after 90 days, sustained over 15 months): approximate doubling; also recorded: approximately double
levels of glycosylated αDG at 3 months (glycosylated αDG; Phase 2, 3 months, sustained over 15 months): increased
change in glycosylated αDG by genotype (glycosylated αDG; both L276I homozygous and other FKRP genotype LGMD2I/R9 patients): Approximate doubling
patients with a ≥100% increase (doubling) in glycosylated αDG levels vs pre-treatment (glycosylated αDG; [6]): 10 of 14
patients with increased glycosylated αDG levels vs pre-treatment baseline (glycosylated αDG; [6]): 13 of 14
αDG glycosylation in LGMD2I/R9 muscle biopsies (glycosylated αDG; treatment with ribitol, FIGS. 13A-13B): dramatically increases
